For 1 molecule, IC50 and radioligand displacement results are on record in PMC4222822, “Discovery and Characterization of a Potent and Selective Inhibitor of Aedes aegypti Inward Rectifier Potassium Channels” (PLoS ONE, 2014).

Each structure is given as a SMILES string.

The target in one assay is AeKir1 (Aedes aegypti, UniProt L0EQS9). Kind of assay: Two-electrode electrophysiology of Xenopus oocytes expressing AeKir1. It counts as cell-based. Conditions: inward current at −140 mV, 95% CI: 2.3–6.3 µM, n = 4–5 oocytes per concentration, read-out: IC50 of AeKir1 current inhibition. Here is the method: AeKir1 and AeKir2B channels were expressed heterologously in Xenopus laevis oocytes as described previously. In brief, defolliculated Xenopus oocytes (purchased from Ecocyte Bioscience, Austin, TX) were injected with 10 ng (0.35 ng/nL) of either AeKir1 or AeKir2B cRNA and cultured for 3–7 days in OR3 media at 18°C. Oocytes injected with 28 nl of nuclease-free H2O served as controls.
All electrophysiological experiments on Xenopus oocytes were performed at room temperature. When present, VU625 was dissolved in solution III or solution V to a final concentration of 0.1, 1, 5, 15, or 50 µM (0.05% DMSO). All solutions were delivered by gravity to a RC-3Z oocyte chamber (Warner Instruments, Hamden, CT) via polyethylene tubing at a flow rate of ∼2 ml/min. Solution changes were made with a Rheodyne Teflon 8-way Rotary valve (Model 5012, Rheodyne, Rohnert Park, CA).
Electrophysiological recordings from oocytes were conducted as described previously In brief, each oocyte was transferred to the holding chamber under superfusion with solution I and impaled with two conventional-glass microelectrodes backfilled with 3 M KCl (resistances of 0.5–1.5 MΩ) to measure membrane potential (Vm) and whole-cell membrane current (Im), respectively. […] All Vm and Im values were recorded by a Digidata 1440A Data Acquisition System (Molecular Devices) and the Clampex module of pCLAMP. […]

The target of another assay is T1, adenosine A1 receptor (Homo sapiens, UniProt P30542).
T1 sequence (P30542 1-326): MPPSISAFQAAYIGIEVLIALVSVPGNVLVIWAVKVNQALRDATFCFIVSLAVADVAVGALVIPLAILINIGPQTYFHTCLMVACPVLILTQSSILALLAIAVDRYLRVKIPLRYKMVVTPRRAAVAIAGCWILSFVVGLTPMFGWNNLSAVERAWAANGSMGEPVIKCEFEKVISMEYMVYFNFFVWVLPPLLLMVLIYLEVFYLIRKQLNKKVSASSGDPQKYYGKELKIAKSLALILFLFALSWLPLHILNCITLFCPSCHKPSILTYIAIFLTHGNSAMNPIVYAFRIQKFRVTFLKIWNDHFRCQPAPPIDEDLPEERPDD
The experiment in a line: Radioligand displacement assay, adenosine A1 receptor. It counts as binding, mammalian. Conditions: 10 µM VU625.

AeKir1, sequence (L0EQS9 entry or part of it): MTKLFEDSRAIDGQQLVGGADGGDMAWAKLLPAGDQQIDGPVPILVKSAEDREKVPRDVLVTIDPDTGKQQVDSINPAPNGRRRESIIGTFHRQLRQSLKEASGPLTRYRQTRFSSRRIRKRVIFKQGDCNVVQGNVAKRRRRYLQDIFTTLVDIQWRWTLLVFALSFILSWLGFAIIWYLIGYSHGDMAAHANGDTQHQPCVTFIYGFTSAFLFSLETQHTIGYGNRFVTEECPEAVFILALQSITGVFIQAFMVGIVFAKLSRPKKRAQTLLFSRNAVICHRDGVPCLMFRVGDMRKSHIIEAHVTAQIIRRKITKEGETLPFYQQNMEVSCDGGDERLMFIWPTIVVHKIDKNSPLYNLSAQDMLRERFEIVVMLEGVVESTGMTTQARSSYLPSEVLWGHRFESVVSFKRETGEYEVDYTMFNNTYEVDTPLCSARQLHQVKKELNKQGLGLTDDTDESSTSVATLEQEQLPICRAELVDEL

For `CCC(=O)N1c2ccc(S(=O)(=O)Nc3cccc(OC)c3)cc2CC1C` (centres unmarked) [VU625, N-(3-methoxyphenyl)-2-methyl-1-propionylindoline-5-sulfonamide], the IC50 at AeKir1 worked out at 3.8 µM. The radioligand displacement on adenosine A1 receptor is given as 76%.

As a reminder, the IC50 is the concentration that inhibits the measured activity by half.
